Laboratory results reported in ChEMBL document CHEMBL1158661, “Celenamide E, a Tripeptide Alkaloid from the Patagonian Sponge Cliona chilensis” (J Nat Prod, 1998).
Active and inactive are the calls of the source.

Experiments:
Assay type in all cases: functional, organism-based
Bacillus subtilis = assay: Antibiotic activity against Bacillus subtilis at 50 ug/disk
Micrococcus luteus = assay: Antibiotic activity against Micrococcus luteus at 50 ug/disk
Staphylococcus aureus = assay: Antibiotic activity against Staphylococcus aureus at 50 ug/disk
Enterococcus faecalis = assay: Antibiotic activity against Enterococcus faecalis at 50 ug/disk

Measured: Activity

N/C(=C\c1cc(O)c(O)c(O)c1)C(=O)N[C@@H](Cc1c[nH]c2cc(Br)ccc12)C(=O)N/C=C/c1ccc(O)c(O)c1
active: all assays above
